Assays:
msh6^-/- male rats = assay: Survival of ENU treated msh6^-/- male rats; assay type: in vivo, rat; settings: for # Surviving founders: 3 x 30 mg/kg bodyweight ENU
From the text: • Figure 1. Characteristics of the msh6^-/- rat. (A) Genomic organization of the msh6 gene in rats. The arrow marks the position of the ENU-induced mutation that results in a premature stop codon. The sequence trace indicates the T to A […] in a heterozygous rat. (B) Western blot (WB) of testes and cultured rat embryonic fibroblast (CREF) lysates stained with antibodies against human MSH6 (160 kDa). Lysate of human embryonic kidney (HEK) cells was loaded as a positive control. MSH6 protein is completely absent in msh6^-/- testes and CREF. Coomassie brilliant blue staining (CBB) was used as a control for protein loading. • Figure 2. Microsatellite instability in the germ line. (A) A mononucleotide repeat of 20 repetitive subunits (G)20 was analyzed in a cross between a msh6^-/- father and a wild type mother and their msh6^+/- offspring. The red line indicates the size of the most prominent amplification product in both parents. In the DNA sample of the offspring one of the alleles has lost one repetitive subunit. (B) Fragment analysis of a dinucleotide repeat (CA)36 that is polymorphic between the founder animals. […] The orange peaks represent the size marker that was loaded to determine the size of the PCR product. • Figure 3. Survival of the msh6^-/- rats. The time the rats became moribund is recorded. Red line, msh6^-/- rats (n=17); black line, control group (n=100, Source Harlan). • Figure 4. Tumors observed in the msh6^-/- rat. (A) Section of a mediastinal lymphoblastic lymphoma of a msh6^-/- male rat stained with HE. (B) A higher magnification of the lymphoblastic lymphoma. (C) Section of a leiomyosarcoma of the endometrium stained with HE. (D) Section of an endometrial carcinoma stained with HE. (E) A higher magnification of the endometrial carcinoma. (F) A section of a squamous cell carcinoma in the stomach of a msh6^-/- female rat stained with HE. (G) Section of a fibroadenoma of a msh6^-/- male rat stained with HE. (H) Section of a liver with lymphoblastic lymphoma leukemia stained with HE. (I) Section of a testicle containing a Leydig cell tumor stained with HE. • Figure 5. Survival of msh6^-/- male rats after treatment of different concentrations of ENU compared to untreated msh6^-/- male rats. Time points of the last ENU injection and the beginning of the mutation discovery screen are indicated. • Figure 6. ENU-induced target-selected knockout protocol. (A) Msh6^-/- males were mutagenized and crossed with wild-type Wistar females. At two weeks of age tissue samples from the F1 progeny were taken and DNA was isolated. (B) For every DNA samples 768 pre-selected amplicons were PCR amplified and dideoxy sequenced. (C) Sequence traces for the same amplicon of the different animals was aligned, processed with PolyPhred (Nickerson et al, (1997) Nucleic Acids Res 25, 2745-51) and analyzed using in house developed software. (D) ENU-induced de novo mutations were verified by independent PCR amplification and sequencing and pups carrying interesting mutations were weaned. The whole procedure from taking tissue samples to weaning interesting mutants takes 1 week, indicated in the centre of the figure. • Figure 7. ENU-induced mutation spectrum in MSH6 deficient background compared to MMR proficient animals. […] (B) The change of introducing a premature stop codon with ENU-induced MSH6 proficient and deficient mutation spectra. For the calculations the sequences of the 768 representative exon-containing amplicons were used (* indicates significance, p < 0.05).
All experiments were approved by the Animal Care Committee of the Royal Dutch Academy of Science according to the Dutch legal ethical guidelines. Experiments were designed to minimize the number of required animals and their suffering. Male MSH6 knockout rats (Msh6^1Hubr) of 12 weeks of age were given three weekly intraperitoneal injections of 25, 30 and 35 mg/kg bodyweight ENU. […]

A:T base pairs = settings: Justice et al. (1999); cited from earlier work

In the case of `CCN(N=O)C(N)=O` [ENU, N-ethyl-N-nitrosourea], the “# Surviving founders” value (msh6^-/- male rats; 17 - 19 weeks after last injection) is reported as 5/5, the “# Surviving founders” value (msh6^-/- male rats; 20 - 22 weeks after last injection) is reported as 5/5 and the “# Surviving founders” value (msh6^-/- male rats; 23 - 25 weeks after last injection) is reported as 5/5. The “# Surviving founders” value (msh6^-/- male rats; 26 - 29 weeks after last injection) was 3/5, the “age after which no male was alive” value (msh6^-/- male rats; ENU treated msh6^-/- males) was at most 50 weeks and the “average mean of survival” value (msh6^-/- male rats; ENU treated msh6^-/- males (untreated msh6^-/- rats: median survival 14 months)) was 37 ± 3 weeks. The “average mean of survival” value (msh6^-/- male rats; ENU treated msh6^-/- males, same value restated in months) was about 8 months, the “# Surviving founders” value (msh6^-/- male rats; fertile msh6^-/- males, 14 - 16 weeks after last injection) was 5/5 and the “A:T->C:G transversions” value (A:T base pairs) was 5%. The “A:T->G:C transitions” value (A:T base pairs) was 38%, the “A:T->T:A transversions” value (A:T base pairs) was 44% and the “G:C ->A:T transitions” value (A:T base pairs) was 8%. For the same compound, the “G:C->C:G transversions” value (A:T base pairs) was 3%, the “G:C->T:A transversions” value (A:T base pairs) was 2% and the missense mutations (A:T base pairs) was “about 64%”. For the same compound, the nonsense mutations (A:T base pairs) was about 10% and the splicing errors (A:T base pairs) was about 26%.
